Test results as given in patent US20080096903A1, “SULFAMOYL-CONTAINING DERIVATIVES AND USES THEREOF” (Wyeth, priority 2006, published 2008).

What was measured:
protein synthesis = conditions: literature reports; cited from earlier work
Hsp90α Protein = Hsp90α Protein (Homo sapiens, UniProt P07900); experiment: Hsp90 CE Competitive Binding Assay (displacement of fluorescein-labelled geldanamycin)
Protocol: Hsp90 CE Competitive Binding Assay: […]
b) “Competitor”, fluorescein-labelled geldanamycin • The competitor was synthesized as described by Llauger-Bufi et al, Bioorg.
The electrophoresis running buffer (RB) is comprised of 200 mM CAPSO, pH 9.2 (pH-adjusted with Trizma base). The sample buffer (SB) is comprised of 10 mM Trizma base, pH 8.0 (pH-adjusted with glacial acetic acid), 5 mM MgCl2, 5 mM DTT, and BSA and Triton as noted.
Capillary electrophoresis was performed on Cetek Gemini Systems™ using laser-induced fluorescence detection. Fused-silica capillaries (50 μm I.D.×30 cm, approximately 10 cm length from end to detection window) were internally coated using Cetek's proprietary methods.
Each sample (i.e., fermentation extract, partially-purified fraction, or compound mixture, or pure compound) to be assayed is prediluted 1:20 or 1:40 in SB containing 0.02% Triton. 1 μl of each prediluted sample is then deposited into a 96-well microtiter plate and mixed with 8 μl of Target Cocktail. These samples can be stored at 4° C. until ready for assay.
When ready for analysis, the plates are transferred to the deck of a Gemini System. To each mixture of sample and target, 1 μl of Competitor Cocktail is added and mixed thoroughly. This reaction mixture is allowed to incubate for 8 minutes on the refrigerated deck of the Gemini System (temperature 8° C.). During incubation, the CE capillary is rinsed for 30 seconds with RB containing 2 mg/ml BSA, and then 60 seconds with RB. At the end of incubation, a small plug of the reaction mixture is then injected into the capillary at low pressure (0.5 psi) for 7 seconds. The loaded capillary is then dipped into reservoirs containing RB and the sample is electrophoresed at 10 kV for 6 minutes at a temperature of 8° C.
The electrophoretic separation produces a graphical profile known as an “electropherogram,” which contains a peak representing the intact complex between Hsp90 and competitor, and a smaller series (typically, a triplet) of peaks representing unbound competitor. […] Dose-response experiments, which evaluate the degree of competitor displacement as a function of sample concentration, are subsequently run in triplicate to validate hits and to quantitate their potencies, which are expressed as IC50 values.
Negative controls are comprised of 0.5% DMSO, and positive controls are comprised of 0.1 μg/ml 17-AAG.

mice = conditions: Takahashi and Bepu, J. Antibiotics 1982; cited from earlier work
HSP90alpha protein = HSP90alpha protein (Homo sapiens, UniProt P07900); experiment: Hsp90alpha and BODIPY-Geldanamycin Fluorescent Polarization Binding Assay; conditions: 5 nM BODIPY GA, 30 nM Hsp90alpha
Protocol: Hsp90alpha and BODIPY-Geldanamycin Fluorescent Polarization Binding Assay Materials • HSP90alpha protein (Stressgen SPP-776) and BODIPY Labeled Geldanamycin (GA) was added to assay buffer stock (stored at 4 C): 20 mM Hepes pH 7.3, 50 mM KCl, 20 mM NaMoO4, 0.01% NP40 • Working Assay buffer: assay buffer stock @RT with freshly added 2 mM DTT and 0.1 mg/ml • Bovine Gamma Globulin (Panvera P2045, 5 mg/ml) • Black 96well micro titer plates (Thermo #7205, vwr# 25227-304) Sample Set-up and Controls • Competitive Binding Samples: 5 nM GA and 30 nM Hsp90alpha and inhibitor • Control Samples: buffer only, BODIPY GA only, BODIPY GA plus Hsp90alpha, BODIPY GA plus • Hsp90alpha and unlabeled GA Protocol 1. Prepare working assay buffer with Hsp90alpha protein at a final concentration of 30 nM per well in 100 ul final volume. Add 85 ul of this solution per well to 96 well black micro titer plate. (for 20 ml assay buffer add 400 ul 1 M DTT stk and 400 ul 5 mg/ml BGG stk) (1 mg/ml Hsp90 stock=˜11 uM protein; want 0.03 uM final in 100 ul, so adjust to 0.035 uM in 85 ul which is 1:314 fold dilution into assay buffer=64 ul protein plus 20 ml buffer to dispense 85 ul/well). 2. Add 5 ul of inhibitors @ 20× final desired concentration. For 10 ug/ml start, the overall dilution from 1 mg/ml stocks is 1:100. […] Use Wallac Envision to read FP using protocol: JENs FP FITC Dual in room 4603. (parameters are: mirror module-FITC FP dual, excitation filter-FITC FP 480, emission filters-FITC FP P-pol 535 and FITC FP S-pol 535) Analysis of Results The Envision instrument automatically prepares a calculation based on the readings it obtains from the two measurements. […] By adjusting G to 0.96 or 0.97, the FP measurement calculation will result in a “0” reading for BODIPY GM without Hsp90. […] IC50s will be determined manually from percent polarization values plotted in Microsoft Excel. […]

IC50 (HSP90alpha protein) | SMILES | inhibition of protein synthesis (protein synthesis) | HSP90 inhibition / binding (in words) (Hsp90α Protein) | IC50 (Hsp90α Protein; initial structure activity relationship table, read-out: HSP90 CE IC50) | toxicity to mice (mice)
 | Nc1nc(Cl)nc2c1ncn2C1OC(COS(N)(=O)=O)C(O)C1O (stereo not shown) [CSA, 2-chloro-5′-sulfamoyladenosine, reference compound] | inhibit protein synthesis | inhibits HSP90 | 1000 nM | toxic to mice
180 nM | Nc1nc(F)nc2c1nc(Cc1cc3c(cc1I)OCO3)n2Cc1cn(CCOS(N)(=O)=O)nn1 [Example 16A, Sulfamic Acid 2-(4-((6-amino-2-fluoro-8-((6-iodobenzo[d][1,3]dioxol-5-yl)methyl)-9H-purin-9-yl)methyl)-1H-1,2,3-triazol-1-yl)ethyl ester] |  |  |  | 
390 nM | Nc1nc(F)nc2c1nc(Cc1cc3c(cc1I)OCO3)n2Cc1cn(CCCOS(N)(=O)=O)nn1 [Example 16B, Sulfamic Acid 3-[4-({6-amino-2-fluoro-8-[(6-iodo-1,3-benzodioxol-5-yl)methyl]-9H-purin-9-yl}methyl)-1H-1,2,3-triazol-1-yl]propyl ester] |  |  |  | 
140 nM | Nc1nc(F)nc2c1nc(Cc1cc3c(cc1I)OCO3)n2CC#CCN1CCC(OS(N)(=O)=O)C1 (stereo not shown) [Example 160] |  |  |  | 
